Test results published in ChEMBL document CHEMBL5729147, “Inhibitors of plasma kallikrein and uses thereof” (2022).

Molecular target: Plasma kallikrein (Homo sapiens, UniProt P03952)
Test: Inhibitory Activity Assay: Example compounds were evaluated for inhibition of the human activated kallikrein enzyme in two formats of an assay employing a fluorogenic peptide substrate. In one assay format, the concentrations of reagents were as follows: 20 mM Tris pH 7.5, 1 mM EDTA, 150 mM sodium chloride, 0.1% PEG-400, 0.1% Triton X-100, 500 pM activated kallikrein enzyme, 300 uM Pro-Phe-Arg-7-amido-4-methylcoumarin substrate. Prior to reaction initiation with substrate, enzyme and inhibitors were preincubated for 30 min at RT. After initiation with substrate, reactions were incubated for 10 min at RT and fluorescence emission at 460 nm from 380 nm excitation measured with a microplate reader. In another assay format, the concentrations of reagents were as follows: 20 mM Tris pH 7.5, 1 mM EDTA, 150 mM sodium chloride, 0.1% PEG-400, 0.1% Triton X-100, 5 pM activated kallikrein enzyme, 300 uM Pro-Phe-Arg-7-amido-4-methylcoumarin substrate. Prior to reaction initiation with substrate, enzyme and inhibitors were preincubated for 30 min at RT. After initiation with substrate, reactions were incubated for 18 h at RT and fluorescence emission at 460 nm from 380 nm excitation measured with a microplate reader.

Plasma kallikrein, sequence (P03952 20-390 limits assumed): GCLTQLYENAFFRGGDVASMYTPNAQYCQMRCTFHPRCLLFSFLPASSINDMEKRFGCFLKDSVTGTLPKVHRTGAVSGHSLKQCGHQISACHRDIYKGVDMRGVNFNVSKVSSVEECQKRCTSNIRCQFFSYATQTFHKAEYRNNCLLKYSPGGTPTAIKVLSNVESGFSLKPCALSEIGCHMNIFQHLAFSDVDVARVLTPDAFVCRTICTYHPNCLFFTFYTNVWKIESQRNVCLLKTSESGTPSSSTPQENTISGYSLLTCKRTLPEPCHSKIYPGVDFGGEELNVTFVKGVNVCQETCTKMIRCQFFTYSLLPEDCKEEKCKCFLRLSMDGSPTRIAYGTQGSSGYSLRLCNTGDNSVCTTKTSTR
Plasma kallikrein, sequence (P03952 391-638 limits assumed): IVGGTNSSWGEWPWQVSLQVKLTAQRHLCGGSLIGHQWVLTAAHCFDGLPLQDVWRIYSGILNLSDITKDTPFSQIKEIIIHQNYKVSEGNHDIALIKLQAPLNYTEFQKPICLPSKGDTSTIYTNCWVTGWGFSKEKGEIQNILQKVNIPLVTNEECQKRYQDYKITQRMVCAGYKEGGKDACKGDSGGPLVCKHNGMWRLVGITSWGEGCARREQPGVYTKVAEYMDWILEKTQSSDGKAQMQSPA

EC50: < 1 nM
Structure (SMILES): O=C(NCc1ncn2ccc(Cl)cc12)c1cnn(Cc2cc3cc(C4CC4)ccn3n2)c1
